Legend:
Test in all cases: relative viability (nuclei count vs DMSO), 5 days (fraction); higher = more cells survive
[1] = tested on: EPLC-272H
How it was run: (§1)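 Dosing by pin tool came one day after lung cancer cell lines were seeded in 1536-well plates, using either one drug or a fixed anchor-drug dose plus five library-drug doses (not always all listed) in √10 steps. After 5 days, nuclei were counted on 4× images. Relative viability is treated-well nuclei count divided by vehicle-well nuclei count, and values are medians of duplicate plates.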

[2] = tested on: H3255
How it was run: as §1

[3] = tested on: HARA
How it was run: as §1

[4] = tested on: LC-2-ad
How it was run: as §1

[5] = tested on: LOU-NH91
How it was run: as §1

[6] = tested on: NCI-H1651
How it was run: as §1

[7] = tested on: NCI-H1975
How it was run: as §1

[8] = tested on: NCI-H2009
How it was run: as §1

[9] = tested on: NCI-H2023
How it was run: as §1

[10] = tested on: NCI-H2085
How it was run: as §1

[11] = tested on: NCI-H2087
How it was run: as §1

[12] = tested on: NCI-H2228
How it was run: as §1

[13] = tested on: NCI-H23
How it was run: as §1

[14] = tested on: NCI-H441
How it was run: as §1

[15] = tested on: NCI-H650
How it was run: as §1

[16] = tested on: NCI-H727
How it was run: as §1

[17] = tested on: NCI-H838
How it was run: as §1

[18] = tested on: PC-3 [JPC-3]
How it was run: as §1

[19] = tested on: SW 1573
How it was run: as §1

[20] = tested on: UMC-11
How it was run: as §1

CN1CCN(CCOc2cc(OC3CCOCC3)c3c(Nc4c(Cl)ccc5c4OCO5)ncnc3c2)CC1 [Saracatinib] + C[C@]1(O)C[C@@H](c2nc(-c3ccc4ccc(-c5ccccc5)nc4c3)c3c(N)nccn32)C1 [Linsitinib] (partner 1 µM)
relative viability ([1]; first compound 0.02 µM): 1.23
relative viability ([1]; first compound 0.2 µM): 1.28
relative viability ([1]; first compound 0.6325 µM): 1.12
relative viability ([1]; first compound 2 µM): 1.07
relative viability ([2]; first compound 0.02 µM): 0.994
relative viability ([2]; first compound 0.2 µM): 0.986
relative viability ([2]; first compound 0.6325 µM): 0.647
relative viability ([2]; first compound 2 µM): 0.233
relative viability ([3]; first compound 0.02 µM): 0.917
relative viability ([3]; first compound 0.6325 µM): 0.787
relative viability ([3]; first compound 2 µM): 0.629
relative viability ([4]; first compound 0.02 µM): 0.971
relative viability ([4]; first compound 0.6325 µM): 0.689
relative viability ([4]; first compound 2 µM): 0.541
relative viability ([5]; first compound 0.02 µM): 0.901
relative viability ([5]; first compound 0.2 µM): 0.603
relative viability ([5]; first compound 0.6325 µM): 0.594
relative viability ([5]; first compound 2 µM): 0.518
relative viability ([6]; first compound 0.02 µM): 0.944
relative viability ([6]; first compound 0.2 µM): 0.661
relative viability ([6]; first compound 0.6325 µM): 0.807
relative viability ([6]; first compound 2 µM): 0.67
relative viability ([7]; first compound 0.02 µM): 0.953
relative viability ([7]; first compound 0.6325 µM): 0.95
relative viability ([7]; first compound 2 µM): 0.478
relative viability ([8]; first compound 0.02 µM): 1.19
relative viability ([8]; first compound 0.2 µM): 1.04
relative viability ([8]; first compound 0.6325 µM): 1.15
relative viability ([8]; first compound 2 µM): 1.04
relative viability ([9]; first compound 0.02 µM): 0.771
relative viability ([9]; first compound 0.2 µM): 0.588
relative viability ([9]; first compound 0.6325 µM): 0.542
relative viability ([9]; first compound 2 µM): 0.366
relative viability ([10]; first compound 0.02 µM): 0.952
relative viability ([10]; first compound 0.2 µM): 0.901
relative viability ([10]; first compound 0.6325 µM): 0.881
relative viability ([10]; first compound 2 µM): 0.898
relative viability ([11]; first compound 0.02 µM): 1.11
relative viability ([11]; first compound 0.2 µM): 0.947
relative viability ([11]; first compound 0.6325 µM): 1.2
relative viability ([11]; first compound 2 µM): 1.12
relative viability ([12]; first compound 0.02 µM): 0.806
relative viability ([12]; first compound 0.2 µM): 0.704
relative viability ([12]; first compound 0.6325 µM): 0.574
relative viability ([12]; first compound 2 µM): 0.392
relative viability ([13]; first compound 0.02 µM): 0.58
relative viability ([13]; first compound 0.6325 µM): 0.558
relative viability ([13]; first compound 2 µM): 0.466
relative viability ([14]; first compound 0.02 µM): 0.508
relative viability ([14]; first compound 0.2 µM): 0.515
relative viability ([14]; first compound 0.6325 µM): 0.682
relative viability ([14]; first compound 2 µM): 0.604
relative viability ([15]; first compound 0.02 µM): 0.94
relative viability ([15]; first compound 0.2 µM): 0.885
relative viability ([15]; first compound 0.6325 µM): 0.838
relative viability ([15]; first compound 2 µM): 0.98
relative viability ([16]; first compound 0.02 µM): 0.284
relative viability ([16]; first compound 0.2 µM): 0.159
relative viability ([16]; first compound 0.6325 µM): 0.26
relative viability ([16]; first compound 2 µM): 0.176
relative viability ([17]; first compound 0.02 µM): 0.997
relative viability ([17]; first compound 0.2 µM): 0.871
relative viability ([17]; first compound 0.6325 µM): 0.749
relative viability ([17]; first compound 2 µM): 0.838
relative viability ([18]; first compound 0.02 µM): 0.961
relative viability ([18]; first compound 0.2 µM): 0.891
relative viability ([18]; first compound 0.6325 µM): 0.875
relative viability ([18]; first compound 2 µM): 0.583
relative viability ([19]; first compound 0.02 µM): 0.846
relative viability ([19]; first compound 0.2 µM): 0.673
relative viability ([19]; first compound 0.6325 µM): 0.699
relative viability ([19]; first compound 2 µM): 0.64
relative viability ([20]; first compound 0.02 µM): 1.09
relative viability ([20]; first compound 0.6325 µM): 0.956
relative viability ([20]; first compound 2 µM): 0.8

From the supplement of paper PMC10307832
